Test results as given in US20260028326A1, “COMPOUND BASED ON ISOINDOLINE-SUBSTITUTED GLUTARIMIDE BACKBONE AND USE THEREOF” (GLUETACS THERAPEUTICS (SHANGHAI) CO., LTD., priority 2022, published 2026).

Experiments:
IKZF3 protein = IKZF3 protein (Homo sapiens (Human), UniProt Q96SW2+Q9UKT9); experiment: Western-blot assay of substrate protein degradation in hPBMC, IKZF3; format: cell-based; details: hPBMC cells, compound 500 nM, 24 hours, Western blot
IKZF1 protein = IKZF1 protein (Homo sapiens (Human), UniProt Q13422+Q96SW2); experiment: Western-blot assay of substrate protein degradation in hPBMC, IKZF1; format: cell-based; details: hPBMC cells, compound 500 nM, 24 hours, Western blot
IKZF1 protein, sequence (Q13422 whole entry): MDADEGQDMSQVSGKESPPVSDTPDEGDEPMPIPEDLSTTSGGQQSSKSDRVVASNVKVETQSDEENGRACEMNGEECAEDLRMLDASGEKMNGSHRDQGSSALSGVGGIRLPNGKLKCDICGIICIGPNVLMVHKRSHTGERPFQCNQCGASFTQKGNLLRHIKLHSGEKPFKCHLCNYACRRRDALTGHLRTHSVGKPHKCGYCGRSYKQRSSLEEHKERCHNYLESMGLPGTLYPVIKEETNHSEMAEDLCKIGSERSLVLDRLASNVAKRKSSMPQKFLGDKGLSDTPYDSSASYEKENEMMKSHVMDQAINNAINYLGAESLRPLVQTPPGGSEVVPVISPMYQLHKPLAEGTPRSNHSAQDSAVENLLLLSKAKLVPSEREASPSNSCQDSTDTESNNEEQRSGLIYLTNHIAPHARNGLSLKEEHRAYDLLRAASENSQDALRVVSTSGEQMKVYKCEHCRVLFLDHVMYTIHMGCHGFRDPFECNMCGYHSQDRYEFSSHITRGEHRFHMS
IKZF1 protein, sequence (Q96SW2 whole entry): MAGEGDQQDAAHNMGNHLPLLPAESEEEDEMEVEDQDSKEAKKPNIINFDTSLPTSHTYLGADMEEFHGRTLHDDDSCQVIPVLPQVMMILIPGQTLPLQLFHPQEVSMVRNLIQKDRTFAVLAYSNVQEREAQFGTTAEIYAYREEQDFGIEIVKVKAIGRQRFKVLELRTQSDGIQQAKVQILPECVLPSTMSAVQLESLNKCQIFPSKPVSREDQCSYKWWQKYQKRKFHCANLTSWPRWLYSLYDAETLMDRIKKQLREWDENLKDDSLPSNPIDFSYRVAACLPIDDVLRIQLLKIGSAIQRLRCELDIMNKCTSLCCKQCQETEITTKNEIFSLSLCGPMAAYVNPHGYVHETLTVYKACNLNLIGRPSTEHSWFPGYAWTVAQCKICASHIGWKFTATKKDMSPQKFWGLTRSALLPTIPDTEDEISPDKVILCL
IKZF1 protein, sequence (Q16531 whole entry partner): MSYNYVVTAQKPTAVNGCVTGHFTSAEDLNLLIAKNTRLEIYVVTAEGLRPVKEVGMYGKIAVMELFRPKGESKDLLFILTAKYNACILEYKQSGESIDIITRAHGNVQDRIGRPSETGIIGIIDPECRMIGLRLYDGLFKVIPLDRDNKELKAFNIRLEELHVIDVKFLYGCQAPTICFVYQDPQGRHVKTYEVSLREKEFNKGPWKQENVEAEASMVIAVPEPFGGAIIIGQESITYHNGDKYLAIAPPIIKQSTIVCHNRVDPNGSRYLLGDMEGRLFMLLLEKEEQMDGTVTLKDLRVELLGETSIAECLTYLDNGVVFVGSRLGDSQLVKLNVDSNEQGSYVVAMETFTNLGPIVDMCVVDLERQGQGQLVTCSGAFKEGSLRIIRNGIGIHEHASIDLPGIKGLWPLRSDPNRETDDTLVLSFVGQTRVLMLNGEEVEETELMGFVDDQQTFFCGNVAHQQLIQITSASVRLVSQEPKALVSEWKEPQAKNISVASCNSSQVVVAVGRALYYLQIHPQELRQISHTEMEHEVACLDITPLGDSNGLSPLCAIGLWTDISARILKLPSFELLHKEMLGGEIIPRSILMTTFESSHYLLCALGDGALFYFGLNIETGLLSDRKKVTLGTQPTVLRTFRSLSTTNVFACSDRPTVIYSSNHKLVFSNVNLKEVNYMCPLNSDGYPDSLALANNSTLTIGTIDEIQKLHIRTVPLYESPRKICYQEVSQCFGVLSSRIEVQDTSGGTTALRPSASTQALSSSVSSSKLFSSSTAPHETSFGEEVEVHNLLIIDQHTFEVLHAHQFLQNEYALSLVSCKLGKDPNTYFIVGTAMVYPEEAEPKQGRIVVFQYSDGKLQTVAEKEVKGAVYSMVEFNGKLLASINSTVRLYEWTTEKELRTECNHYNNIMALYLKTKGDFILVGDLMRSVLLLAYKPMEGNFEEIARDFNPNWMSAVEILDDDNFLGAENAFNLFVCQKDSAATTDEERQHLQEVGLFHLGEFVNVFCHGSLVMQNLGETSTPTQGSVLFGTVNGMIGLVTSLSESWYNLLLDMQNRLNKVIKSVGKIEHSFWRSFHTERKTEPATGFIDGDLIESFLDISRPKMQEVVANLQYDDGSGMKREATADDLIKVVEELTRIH

MM.1S cells = experiment: Tumor cell proliferation IC50 (CCK-8), MM.1S; details: Homo sapiens, MM1.S, 72 h, read-out: IC50 for inhibiting the proliferation of tumor cells, MM.1S;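 also: viability of cultured cells read by CCK-8 reagent after compound exposure, growth inhibition curves fitted to derive IC50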
GSPT1 protein = GSPT1 protein (Homo sapiens (Human), UniProt P15170+Q96SW2); experiment: Western-blot assay of substrate protein degradation in hPBMC, GSPT1; format: cell-based; details: hPBMC cells, compound 500 nM, 24 hours, Western blot
GSPT1 protein, sequence (P15170 whole entry): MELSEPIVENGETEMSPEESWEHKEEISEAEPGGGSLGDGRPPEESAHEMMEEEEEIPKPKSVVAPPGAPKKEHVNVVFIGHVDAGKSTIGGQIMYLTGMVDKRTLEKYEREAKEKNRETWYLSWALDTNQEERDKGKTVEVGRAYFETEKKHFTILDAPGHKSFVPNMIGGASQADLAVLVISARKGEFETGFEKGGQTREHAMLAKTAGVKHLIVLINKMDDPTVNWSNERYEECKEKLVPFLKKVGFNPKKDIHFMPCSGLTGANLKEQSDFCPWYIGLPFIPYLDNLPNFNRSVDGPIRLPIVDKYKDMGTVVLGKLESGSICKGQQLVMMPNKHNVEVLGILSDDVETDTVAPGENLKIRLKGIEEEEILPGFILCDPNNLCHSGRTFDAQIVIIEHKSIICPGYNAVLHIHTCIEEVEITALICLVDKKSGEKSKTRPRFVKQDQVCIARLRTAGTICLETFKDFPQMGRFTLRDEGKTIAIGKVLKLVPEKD
GSPT1 protein, sequence (Q96SW2 whole entry): as the sequence (Q96SW2 whole entry) above
GSPT1 protein, sequence (Q16531 whole entry partner): as the sequence (Q16531 whole entry partner) above

[1] = biological target: human Cereblon WT GST-tagged protein (Homo sapiens (Human), UniProt Q96SW2); experiment: CRBN-binding affinity, HTRF (CEREBLON BINDING kit)
human Cereblon WT GST-tagged protein, sequence (Q96SW2 whole entry): as the sequence (Q96SW2 whole entry) above
Outline: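 GST-tagged human WT Cereblon incubated with compound, then Thalidomide-Re tracer and anti-GST Eu antibody added. Displacement read by HTRF, reported as CRBN binding inhibition rate against blank control wells without protein.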

IKZF3 protein, sequence (Q9UKT9 whole entry): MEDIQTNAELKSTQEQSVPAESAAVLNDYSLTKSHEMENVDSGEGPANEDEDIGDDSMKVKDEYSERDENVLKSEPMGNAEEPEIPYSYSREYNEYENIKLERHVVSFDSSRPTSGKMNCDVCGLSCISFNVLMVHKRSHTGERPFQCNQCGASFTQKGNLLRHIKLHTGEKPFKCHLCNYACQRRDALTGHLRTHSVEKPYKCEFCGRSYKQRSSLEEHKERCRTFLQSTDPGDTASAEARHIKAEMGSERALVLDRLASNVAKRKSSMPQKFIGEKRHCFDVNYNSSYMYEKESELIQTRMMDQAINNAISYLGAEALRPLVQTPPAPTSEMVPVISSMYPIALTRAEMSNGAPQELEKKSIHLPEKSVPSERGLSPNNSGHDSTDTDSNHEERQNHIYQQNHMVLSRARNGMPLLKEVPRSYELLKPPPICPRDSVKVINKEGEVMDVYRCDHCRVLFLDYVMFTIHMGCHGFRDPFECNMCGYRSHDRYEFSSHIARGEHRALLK
IKZF3 protein, sequence (Q96SW2 whole entry): as the sequence (Q96SW2 whole entry) above
IKZF3 protein, sequence (Q16531 whole entry partner): as the sequence (Q16531 whole entry partner) above

Row | IC50 (MM.1S cells) [nM] | IC50 [1] [nM] | SMILES | residual substrate protein level, IKZF3 (IKZF3 protein) | residual substrate protein level, IKZF1 (IKZF1 protein) | residual substrate protein level, GSPT1 (GSPT1 protein)
1 | 100 to 500 | 590 | CC1(C)CCC(CN2CCCN(Cc3ccc4c(c3)CN(C3CCC(=O)NC3=O)C4=O)CC2)=C(c2ccc(Cl)cc2)C1 (stereo not shown) [GT-05396, 3-(5-((4-((4′-chloro-5,5-dimethyl-3,4,5,6-tetrahydro-[1,1′-biphenyl]-2-yl)methyl)-1,4-diazepan-1-yl)methyl)-1-oxoisoindolin-2-yl)piperidine-2,6-dione] | A (A represents a residual substrate protein level of <50%) | B (B represents a residual substrate protein level of >50%) | A (A represents a residual substrate protein level of <50%)
2 | 100 to 500 | 700 | CC1(C)CCC(C(=O)N2CCC3(CC2)CN(Cc2ccc4c(c2)CN(C2CCC(=O)NC2=O)C4=O)C3)=C(c2ccc(Cl)cc2)C1 (stereo not shown) [GT-05656, 3-(5-((7-(4′-chloro-5,5-dimethyl-3,4,5,6-tetrahydro-[1,1′-biphenyl]-2-carbonyl)-2,7-diazaspiro[3.5]nonan-2-yl)methyl)-1-oxoisoindolin-2-yl)piperidine-2,6-dione] | A (A represents a residual substrate protein level of <50%) | B (B represents a residual substrate protein level of >50%) | B (B represents a residual substrate protein level of >50%)
3 | 50 to 100 | 1230 | CC1(C)CCC(CN2CCC3(CC2)CN(Cc2ccc4c(c2)CN(C2CCC(=O)NC2=O)C4=O)C3)=C(c2ccc(Cl)cc2)C1 (stereo not shown) [GT-05677, 3-(5-((7-((4′-chloro-5,5-dimethyl-3,4,5,6-tetrahydro-[1,1′-biphenyl]-2-yl)methyl)-2,7-diazaspiro[3.5]nonan-2-yl)methyl)-1-oxoisoindolin-2-yl)piperidine-2,6-dione] | A (A represents a residual substrate protein level of <50%) | A (A represents a residual substrate protein level of <50%) | B (B represents a residual substrate protein level of >50%)
4 | 500 to 1000 |  | O=C1CCC(N2Cc3cc(CN4CCN(Cc5ccc(-c6ccc(Cl)cn6)cc5)CC4)ccc3C2=O)C(=O)N1 (stereo not shown) [GT-05872, 3-(5-((4-(4-(5-chloropyridin-2-yl)benzyl)piperazin-1-yl)methyl)-1-oxoisoindolin-2-yl)piperidine-2,6-dione] | B (B represents a residual substrate protein level of >50%) | A (A represents a residual substrate protein level of <50%) | B (B represents a residual substrate protein level of >50%)

Row | SMILES | IC50 (MM.1S cells) [nM] | IC50 [1] [nM] | residual substrate protein level, IKZF3 (IKZF3 protein) | residual substrate protein level, IKZF1 (IKZF1 protein) | residual substrate protein level, GSPT1 (GSPT1 protein)
5 | O=C1CCC(N2C(=O)c3ccc(N4C5CCC4CN(Cc4ccccc4-c4ccc(Cl)cc4)C5)cc3C2=O)C(=O)N1 (stereo not shown) [GT-05370, 5-(3-((4′-chloro-[1,1′-biphenyl]-2-yl)methyl)-3,8-diazabicyclo[3.2.1]octan-8-yl)-2-(2,6-dioxopiperidin-3-yl)isoindoline-1,3-dione] | < 5 |  | A (A represents a residual substrate protein level of <50%) | B (B represents a residual substrate protein level of >50%) | A (A represents a residual substrate protein level of <50%)
6 | CC1(C)CCC(CN2CC3CC(C2)N3Cc2cc(F)c3c(c2)CN(C2CCC(=O)NC2=O)C3=O)=C(c2ccc(Cl)cc2)C1 (stereo not shown) [GT-05383, 3-(5-((3-((4′-chloro-5,5-dimethyl-3,4,5,6-tetrahydro-[1,1′-biphenyl]-2-yl)methyl)-3,6-diazabicyclo[3.1.1]heptan-6-yl)methyl)-7-fluoro-1-oxoisoindolin-2-yl)piperidine-2,6-dione] | 500 to 1000 | 540 | B (B represents a residual substrate protein level of >50%) | B (B represents a residual substrate protein level of >50%) | A (A represents a residual substrate protein level of <50%)
